# In patent US20250282735A1, “BICYCLE COMPOUNDS AS TEAD INHIBITOR” (DONG-A ST CO., LTD., priority 2022, published 2025):
# Test system: TEAD reporter-containing human breast cancer cell line MCF7
# Experiment: TEAD reporter (luciferase) assay
# Format: cell-based
# Conditions: TEAD reporter MCF7 cells, 24 hours treatment, 1% serum media
# Protocol: The TEAD reporter-containing human breast cancer cell line MCF7 (60618, BPS bioscience) was cultured according to the manufacturer's instructions. Cells were plated in 96-well white plates at a density of 30,000 per well and incubated overnight. The following day cells were treated with small molecules in 1% serum media (0.1% v/v DMSO). After 24 hours of the treatment, cell viability was evaluated by using CCK-8 reagent (CK04, Dojindo) and measuring absorbance at 450 nm. Then, the assay for luciferase activity was performed using Dual-Glo® Luciferase Assay System (Promega, E2940) following the manufacturer's instructions. Luminescence intensity was measured and the potency of the compounds was determined by IC50 value generated from non-linear regression analysis of the dose-response curves.
# IC50 for luciferase activity are shown in the Table 1 below and designated within the following ranges. [+++: ≤0.1 μM, ++: >0.1 μM to ≤1 μM, +: >1 μM to ≤10 μM, −: >10 μM]
row,IC50,SMILES
1,> 10000 nM,"C=CC(=O)Nc1ccc2c(c1)c(/C=C/c1ccc(Cl)cc1)nn2C(C)C [Compound 6, (E)-N-(3-(4-Chlorostyryl)-1-isopropyl-1H-indazol-5-yl)acrylamide]"
2,100 to 1000 nM,"C=CC(=O)Nc1ccc2c(c1)c(/C=C/C1CCC(F)(F)CC1)nn2C1CCCC1 [Compound 7, (E)-N-(1-Cyclopentyl-3-(2-(4,4-difluorocyclohexyl)vinyl)-1H-indazol-5-yl)acrylamide]"
3,1000 to 10000 nM,"C=CC(=O)Nc1ccc2c(c1)c(/C=C/c1ccc(Cl)cc1)nn2C1CCCC1 [Compound 8, (E)-N-(3-(4-Chlorostyryl)-1-cyclopentyl-1H-indazol-5-yl)acrylamide]"
4,≤ 100 nM,"C=CC(=O)Nc1cnc2c(c1)c(/C=C/C1CCC(F)(F)CC1)cn2C1CCCC1 [Compound 9, (E)-N-(1-Cyclopentyl-3-(2-(4,4-difluorocyclohexyl)vinyl)-1H-pyrrolo[2,3-b]pyridin-5-yl)acrylamide]"
5,1000 to 10000 nM,"C=CC(=O)Nc1ccc2c(c1)c(/C=C/c1ccc(Cl)cc1)cn2C1CCCC1 [Compound 11, (E)-N-(3-(4-Chlorostyryl)-1-cyclopentyl-1H-indol-5-yl)acrylamide]"
6,100 to 1000 nM,"C=CC(=O)Nc1ccc2c(/C=C/c3ccc(Cl)cc3)cn(C)c2c1 [Compound 12, (E)-N-(3-(4-Chlorostyryl)-1-methyl-1H-indol-6-yl)acrylamide]"
7,1000 to 10000 nM,"C=CC(=O)Nc1cnc2c(c1)c(/C=C/c1ccc(Cl)cc1)cn2C(C)C [Compound 20, (E)-N-(3-(4-Chlorostyryl)-1-isopropyl-1H-pyrrolo[2,3-b]pyridin-5-yl)acrylamide]"
8,> 10000 nM,"C=CC(=O)Nc1ccc2c(c1)c(/C=C/c1ccc(F)cc1)cn2C(C)C [Compound 29, (E)-N-(3-(4-Fluorostyryl)-1-isopropyl-1H-indol-5-yl)acrylamide]"
9,1000 to 10000 nM,"C=CC(=O)Nc1cc(F)c2c(c1)c(/C=C/C1CCC(F)(F)CC1)cn2C(C)C [Compound 38, (E)-N-(3-(2-(4,4-Difluorocyclohexyl)vinyl)-7-fluoro-1-isopropyl-1H-indol-5-yl)acrylamide]"
10,> 10000 nM,"C=CC(=O)Nc1cc(F)c2c(c1)c(/C=C/c1ccc(Cl)cc1)cn2C(C)C [Compound 39, (E)-N-(3-(4-Chlorostyryl)-7-fluoro-1-isopropyl-1H-indol-5-yl)acrylamide]"
11,100 to 1000 nM,"C=CC(=O)Nc1cnc2c(c1)c(/C=C/c1ccccc1)cn2C [Compound 45, (E)-N-(1-Methyl-3-styryl-1H-pyrrolo[2,3-b]pyridin-5-yl)acrylamide]"
12,1000 to 10000 nM,"C=CC(=O)Nc1cnc2c(c1)c(/C=C/c1cccc(OC)c1)cn2C [Compound 48, (E)-N-(3-(3-Methoxystyryl)-1-methyl-1H-pyrrolo[2,3-b]pyridin-5-yl)acrylamide]"
13,≤ 100 nM,"C=CC(=O)Nc1cnc2c(c1)c(-c1cccc(C(F)(F)F)c1)cn2C [Compound 54, N-(1-Methyl-3-(3-(trifluoromethyl)phenyl)-1H-pyrrolo[2,3-b]pyridin-5-yl)acrylamide]"
14,100 to 1000 nM,"C=CC(=O)Nc1cnc2c(c1)c(-c1ccc(SC)cc1)cn2C [Compound 55, N-(1-Methyl-3-(4-(methylthio)phenyl)-1H-pyrrolo[2,3-b]pyridin-5-yl)acrylamide]"
15,1000 to 10000 nM,"C=CC(=O)Nc1cnc2c(c1)c(-c1cccc(C#N)c1)cn2C [Compound 56, N-(3-(3-Cyanophenyl)-1-methyl-1H-pyrrolo[2,3-b]pyridin-5-yl)acrylamide]"
16,1000 to 10000 nM,"C=CC(=O)Nc1cnc2c(c1)c(-c1ccc(C#N)cc1)cn2C [Example 57, N-(3-(4-Cyanophenyl)-1-methyl-1H-pyrrolo[2,3-b]pyridin-5-yl)acrylamide]"

row,IC50,SMILES
1,100 to 1000 nM,"C=CC(=O)Nc1cnc2c(c1)c(/C=C/C1CCOCC1)cn2C [Example 58, (E)-N-(1-Methyl-3-(2-(tetrahydro-2H-pyran-4-yl)vinyl)-1H-pyrrolo[2,3-b]pyridin-5-yl)acrylamide]"
2,100 to 1000 nM,"C=CC(=O)Nc1cnc2c(c1)c(/C=C/c1ccsc1)cn2C [Example 59, (E)-N-(1-Methyl-3-(2-(thiophen-3-yl)vinyl)-1H-pyrrolo[2,3-b]pyridin-5-yl)acrylamide]"
3,1000 to 10000 nM,"C=CC(=O)Nc1cnc2c(c1)c(/C=C/C1CC1)cn2C [Example 60, (E)-N-(3-(2-Cyclopropylvinyl)-1-methyl-1H-pyrrolo[2,3-b]pyridin-5-yl)acrylamide]"
4,1000 to 10000 nM,"C=CC(=O)Nc1cnc2c(c1)c(/C=C/c1ccc3c(c1)OCCO3)cn2C [Example 61, (E)-N-(3-(2-(2,3-Dihydrobenzo[b][1,4]dioxin-6-yl)vinyl)-1-methyl-1H-pyrrolo[2,3-b]pyridin-5-yl)acrylamide]"
5,> 10000 nM,"C=CC(=O)Nc1cnc2c(c1)c(/C=C/C1CC1C(=O)OCC)cn2C (stereo not shown) [Example 62, Ethyl (E)-2-(2-(5-acrylamido-1-methyl-1H-pyrrolo[2,3-b]pyridin-3-yl)vinyl)cyclopropane-1-carboxylate]"
6,> 10000 nM,"C=CC(=O)N(CC(=O)O)c1cnc2c(c1)c(/C=C/c1ccc(Cl)cc1)cn2C [Example 65, (E)-N-Acryloyl-N-(3-(4-chlorostyryl)-1-methyl-1H-pyrrolo[2,3-b]pyridin-5-yl)glycine]"
7,1000 to 10000 nM,"C=CC(=O)N(Cc1nn[nH]n1)c1cnc2c(c1)c(/C=C/c1ccc(Cl)cc1)cn2C [Example 69, (E)-N-((2H-Tetrazol-5-yl)methyl)-N-(3-(4-chlorostyryl)-1-methyl-1H-pyrrolo[2,3-b]pyridin-5-yl)acrylamide]"
8,> 10000 nM,"C=CC(=O)Nc1ccc2c(c1)c(/C=C/c1ccc(Cl)cc1)cn2C(C)=O [Example 75, (E)-N-(1-Acetyl-3-(4-chlorostyryl)-1H-indol-5-yl)acrylamide]"
9,≤ 100 nM,"C=CC(=O)Nc1cnc2ccn(Cc3ccc(C(F)(F)F)cc3)c2c1 [Example 76, N-(1-(4-(Trifluoromethyl)benzyl)-1H-pyrrolo[3,2-b]pyridin-6-yl)acrylamide]"
10,100 to 1000 nM,"C=CC(=O)Nc1cnc2ccn(Cc3ccc(F)cc3)c2c1 [Example 78, N-(1-(4-Fluorobenzyl)-1H-pyrrolo[3,2-b]pyridin-6-yl)acrylamide]"
11,100 to 1000 nM,"C=CC(=O)Nc1cnc2c(c1)c(/C=C/c1cccs1)cn2C [Example 82, (E)-N-(1-Methyl-3-(2-(thiophen-2-yl)vinyl)-1H-pyrrolo[2,3-b]pyridin-5-yl)acrylamide]"
12,100 to 1000 nM,"C=CC(=O)Nc1cnc2c(c1)c(-c1cccc(CCC3CCC(F)(F)CC3)c1)cn2C [Example 86, N-(3-(3-(2-(4,4-Difluorocyclohexyl)ethyl)phenyl)-1-methyl-1H-pyrrolo[2,3-b]pyridin-5-yl)acrylamide]"
13,1000 to 10000 nM,"C=CC(=O)Nc1cnc2c(c1)c(-c1ccc(OC)cc1)cn2C [Example 90, N-(3-(4-Methoxyphenyl)-1-methyl-1H-pyrrolo[2,3-b]pyridin-5-yl)acrylamide]"
14,100 to 1000 nM,"C=CC(=O)Nc1cnc2c(c1)c(-c1cccc(Oc3ccccc3)c1)cn2C [Example 94, N-(1-Methyl-3-(3-phenoxyphenyl)-1H-pyrrolo[2,3-b]pyridin-5-yl)acrylamide]"
15,1000 to 10000 nM,"C=CC(=O)Nc1cnc2c(c1)c(C1=CCCCC1)cn2C [Example 101, N-(3-(Cyclohex-1-en-1-yl)-1-methyl-1H-pyrrolo[2,3-b]pyridin-5-yl)acrylamide]"
